For assay [1], the system named is Cisplatin-induced uremia in the Sprague-Dawley rat model. To be noted: single dose of 10 μg/1 mL/head and 20 μg/1 mL/head IV, vs control group of excipient. The protocol: (§1) The intravenous administration was done by fixing an animal into a correction frame, and slowly injecting at a rate of within 1 mL/min through the micro vein using a syringe equipped with 26 gauges needle. The intraperitoneal administration was performed by fixing the animal by a transdermal skin fixation method and intraperitoneally injecting using a syringe equipped with 26 gauges needle.
Serum obtained from the centrifugation was tested for blood urea nitrogen (BUN) and […] (CRE) using a blood biochemical analyzer (7180 Hitachi, Japan).

Assay [2] shares this test system. The protocol:
as §1
Finally, animals were inhaled with ether on an necropsy day to anesthetize and euthanize, and kidneys were extracted and fixed in a 10% neutral buffered formalin solution, and the fixed tissues were cut, dehydrated, paraffin embedded and hematoxylin & eosin stained to make a specimens for histopathological examination after these histological treatment. And then, the obtained specimen is subjected to speculum using an optical microscope (Olympus BX53, Japan).

For the substance “alarin (human) trifluoroacetate salt [test substance]”, the blood biochemical level entry in assay [1] is “tendency to improve”. Besides, the “histopathological examination results, lesion level” value in assay [2] (10 and 20 μg/1 mL/head IV single dose, across doses) is “dose-related change trend and significant changes in lesion level”. Moreover, in assay [2] (high dose group (20 μg/1 mL/head IV, single dose), necropsy Day 7, H&E, vs control group), the “level of lesion (histopathological examination of kidney)” value is listed as “significantly lower”.

Values taken from patent US11642392B2, “Therapeutic agent of uremia containing alarin as the main ingredient” (JU TIDE CO., LTD., priority 2017, dated 2023).
